The subject of one data set is Male Rj: NMRI mice. The data set can be described thus: Formalin paw test (late phase) in the mouse. Type of data set: in vivo. Particulars: for Anti-inflammatory and analgesic effects in formalin paw test (FIG. 16): 50, 250, 500 μmole/kg. Here is the method:
The method described herein detects analgesic/anti-inflammatory activity, generally used to test compounds for pain relief, in particular diabetic neuropathy or nociceptive neuropathy. See Wheeler-Aceto, et al. (1991) Psychopharmacology 104: 35-44.
Mice were given an intraplantar injection of 5% formalin (25 μl) into the posterior left paw. This treatment induces paw licking in control animals. Mice were briefly observed at 1 minute intervals between 15 and 50 minutes after the injection of formalin and the number of occasions that the mice were observed licking the injected paw was recorded. There were 10 mice per group and the test was performed “blind.”
The experiment included 11 groups. Data was analyzed by comparing treated groups with vehicle control using unpaired Mann-Whitney U tests.
Gabapentin (100 mg/kg i.p.) administered under the same experimental conditions, was used as reference substance. The experiment included several groups. Data was analyzed by comparing treated groups with vehicle control using unpaired Mann-Whitney U tests.

The subject of a further data set is adult mice (C57/B16). The data set can be described thus: Mesial temporal lobe epilepsy model (mice), hippocampal discharges. Type of data set: in vivo, mouse. Conditions: 50 mg/kg for NTP-2014 and NTP-2026; 150 mg/kg for NTP-2024, NTP-2006, NTP-1007, NTP-1003. Here is the method:
Antiepileptic protocol: Up to eight adult mice (C57/B16) are injected with kainate (1 nmol in 50 nl) and are implanted with a bipolar electrode in the dorsal hippocampus using stereotaxic techniques under general anesthesia. […] Drug conditions are counter-balanced, the animals being used as their own controls. Digital EEG recordings are performed in freely moving animals for 20 min pre-injection and 80 min post-injection. The effects of the injected compound are compared versus vehicle injections and reference period (pre-dose). Upon completion of the experiment, standard histological analysis are performed to verify electrode location, cell losses in CA1, CA3 and hilus, as well as dentate gyrus dispersion. Only animals with all characteristics of MTLE are used in data analysis. […] The results below are normalized to the pre-dose condition for each of the treatment group including DMSO and saline vehicle controls. Doses of test article compounds were 50 mg/kg for NTP-2014 and NTP-2026 and 150 mg/kg for NTP-2024, NTP-2006, NTP-1007, and NTP-1003. Therefore the bumetanide, furosemide, piretanide, azosemide, and torsemide esters and amide analogs described herein may be used in therapeutic methods to treat seizures.

For a further data set, the target named is T1, Na+K+Cl− co-transporter (Rattus norvegicus, UniProt E9PTX9).
T1 construct: endogenous in cells; host or cells: A7r5 cells
T1 sequence (E9PTX9 1-1203): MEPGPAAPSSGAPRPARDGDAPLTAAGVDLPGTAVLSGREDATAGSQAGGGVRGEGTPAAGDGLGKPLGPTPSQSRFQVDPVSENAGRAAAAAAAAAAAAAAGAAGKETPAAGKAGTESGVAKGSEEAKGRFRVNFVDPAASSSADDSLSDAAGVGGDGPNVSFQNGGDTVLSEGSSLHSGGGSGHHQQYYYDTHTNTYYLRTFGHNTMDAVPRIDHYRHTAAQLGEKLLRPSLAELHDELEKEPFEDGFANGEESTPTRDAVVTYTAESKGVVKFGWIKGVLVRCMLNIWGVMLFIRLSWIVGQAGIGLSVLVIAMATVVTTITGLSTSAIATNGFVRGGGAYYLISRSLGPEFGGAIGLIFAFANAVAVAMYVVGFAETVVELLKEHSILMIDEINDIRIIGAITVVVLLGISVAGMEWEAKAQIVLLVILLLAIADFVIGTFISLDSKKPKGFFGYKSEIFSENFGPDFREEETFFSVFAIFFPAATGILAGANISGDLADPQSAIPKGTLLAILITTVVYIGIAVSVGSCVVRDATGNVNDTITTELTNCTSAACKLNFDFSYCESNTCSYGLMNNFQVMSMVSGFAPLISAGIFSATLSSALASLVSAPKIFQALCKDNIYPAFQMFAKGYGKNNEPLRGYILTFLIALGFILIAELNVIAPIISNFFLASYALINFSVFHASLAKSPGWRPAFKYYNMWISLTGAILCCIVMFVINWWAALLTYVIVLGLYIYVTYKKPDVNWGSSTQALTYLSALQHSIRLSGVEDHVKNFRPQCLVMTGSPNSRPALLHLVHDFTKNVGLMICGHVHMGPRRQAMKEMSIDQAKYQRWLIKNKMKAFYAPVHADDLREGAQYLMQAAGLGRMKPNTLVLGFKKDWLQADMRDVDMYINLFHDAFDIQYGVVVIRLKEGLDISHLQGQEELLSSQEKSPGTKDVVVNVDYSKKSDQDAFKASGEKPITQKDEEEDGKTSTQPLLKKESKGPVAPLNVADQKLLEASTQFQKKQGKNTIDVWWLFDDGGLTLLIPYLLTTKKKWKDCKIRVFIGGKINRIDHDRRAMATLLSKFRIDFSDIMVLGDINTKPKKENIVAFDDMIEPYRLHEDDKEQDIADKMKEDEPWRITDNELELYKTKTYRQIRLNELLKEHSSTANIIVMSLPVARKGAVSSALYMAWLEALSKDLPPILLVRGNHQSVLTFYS
Description: Na+K+Cl− cotransporter assay, 86Rb uptake in A7r5 cells. Type of data set: cell-based. Conditions: 10 minutes at 37° C. How it is done:
Na^+K^+Cl^− co-transporter activity was measured in vitro in A7r5 cells by measuring their uptake of ^86Rb (0.2 μCi) in 10 minutes at 37° C. as detected by scintillation counting. See Chassande, et al. (1988) “The Na^+/K^+/Cl^− Cotransport in C6 glioma cells. Properties and role in volume regulation.” Eur. J. Biochem. 171: 425433.

Data set [1] in a line: Blood levels in rat following IP administration. Type of data set: in vivo.
Data set [2] is described as follows: Brain levels in rat following IP administration. Conditions: NTP-2006 100 mg/kg IP, PBx pretreated. The data set is classed as in vivo.
Data set [3] deals with T2, α1β3γ2 GABAA receptor isoform (Homo sapiens, UniProt P14867+P18507+P28472).
T2 construct: expressed in transfected cells; host or cells: HEK-293T, transient transfection
The data set can be described thus: Whole-cell patch clamp, transfected HEK-293T cells. Conditions: FIG. 36. The data set is classed as cell-based, rat or human. How it is done: The addition of GABA to […] activates the recombinant expressed GABAA receptors, creating an ion movement through the ion channel in the GABAA receptor. The electrical current generated by the movement of chloride ions into the cells can be quantified.
HEK-293T cells were transiently transfected with rat or human GABAA receptor subunits. Whole-cell patch clamp recording was performed at −50 mV unless otherwise indicated. Test compounds was diluted from a freshly made stock in DMSO, GABA was prepared from a frozen stock. For each experiment GABA or GABA+a test compound was applied for 5 seconds, and the electrical current generated by the movement of chloride ions into the cells was measured and recorded as a trace of current versus time.
Compounds described herein (e.g., NTP-2014) were tested at high and low GABA concentrations against multiple GABAA receptor isoforms (e.g., α1β3γ2, α2β3 γ2, α3β3γ2, α3β3γ2, α4β3γ2, α5β3γ2, α6β3γ2). […] NTP-2014 inhibits the currents in the parasynaptic α4 GABAA receptor isoform in GABAergic interneurons. […]
In general terms: Patch clamp records ionic current or voltage across a cell membrane.

Setting [4] is: i.p. 30 minutes before the test, 50 μmol/kg (NTP-2006 23.9, NTP-2024 21.7, NTP-1007 19.3, NTP-2014 21, NTP-2026 23.1 mg/kg).
[5] abbreviates: i.p., 250 μmol/kg (NTP-2006 119, NTP-2024 108, NTP-1007 96.5, NTP-2014 105, NTP-2026 116 mg/kg).
Where [6] appears, read: i.p., 500 μmol/kg (NTP-2006 239, NTP-2024 217, NTP-1007 193, NTP-2014 210, NTP-2026 231 mg/kg).

Each structure is given as a SMILES string. “And” between values parts separate entries of the source, which are not always exact repeats. Equal entries are not always repeated.

T2 sequence (P14867 28-456): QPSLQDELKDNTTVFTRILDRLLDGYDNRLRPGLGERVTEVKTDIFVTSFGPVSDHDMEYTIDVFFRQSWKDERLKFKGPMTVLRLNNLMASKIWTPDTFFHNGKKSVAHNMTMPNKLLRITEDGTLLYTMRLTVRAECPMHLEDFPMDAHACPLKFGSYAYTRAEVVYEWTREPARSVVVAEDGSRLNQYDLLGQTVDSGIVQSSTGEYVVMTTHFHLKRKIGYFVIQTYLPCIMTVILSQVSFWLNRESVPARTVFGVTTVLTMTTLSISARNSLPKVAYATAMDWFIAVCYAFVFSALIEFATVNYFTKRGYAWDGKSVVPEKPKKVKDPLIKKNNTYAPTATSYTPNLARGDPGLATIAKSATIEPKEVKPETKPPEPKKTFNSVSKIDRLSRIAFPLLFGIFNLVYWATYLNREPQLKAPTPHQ
T2 sequence (P28472 26-473): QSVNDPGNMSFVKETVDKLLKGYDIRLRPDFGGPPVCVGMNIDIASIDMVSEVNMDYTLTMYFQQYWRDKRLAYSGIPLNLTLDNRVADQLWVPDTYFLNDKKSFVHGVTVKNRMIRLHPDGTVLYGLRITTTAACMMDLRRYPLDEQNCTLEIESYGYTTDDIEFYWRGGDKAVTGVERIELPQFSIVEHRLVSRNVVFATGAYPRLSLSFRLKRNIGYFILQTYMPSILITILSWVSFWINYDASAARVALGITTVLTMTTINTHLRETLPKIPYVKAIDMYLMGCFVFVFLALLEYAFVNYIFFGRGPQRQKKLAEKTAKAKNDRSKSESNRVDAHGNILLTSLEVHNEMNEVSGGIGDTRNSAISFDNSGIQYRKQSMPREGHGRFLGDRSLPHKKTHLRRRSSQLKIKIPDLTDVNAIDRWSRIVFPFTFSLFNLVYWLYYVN
T2 sequence (P18507 40-475): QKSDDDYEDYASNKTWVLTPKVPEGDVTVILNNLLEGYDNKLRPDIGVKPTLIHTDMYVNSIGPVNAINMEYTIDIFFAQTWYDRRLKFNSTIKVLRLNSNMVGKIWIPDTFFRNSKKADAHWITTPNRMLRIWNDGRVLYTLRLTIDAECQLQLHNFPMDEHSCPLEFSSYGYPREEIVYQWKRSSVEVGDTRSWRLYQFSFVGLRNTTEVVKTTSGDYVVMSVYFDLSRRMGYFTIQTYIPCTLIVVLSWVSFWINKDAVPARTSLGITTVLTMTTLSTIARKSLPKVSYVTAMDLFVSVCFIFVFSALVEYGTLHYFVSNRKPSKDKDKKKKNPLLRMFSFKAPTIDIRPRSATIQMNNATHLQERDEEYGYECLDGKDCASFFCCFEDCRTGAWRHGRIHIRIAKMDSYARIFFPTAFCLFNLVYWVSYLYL

Consider `CCN(CC)C(=O)c1cc(S(N)(=O)=O)c(Cl)cc1NCc1ccco1` [NTP-1007, N,N-Diethyl 5-Aminosulfonyl-4-chloro-2-[(2-furanylmethyl)amino]benzamide], for which the “Licking Score % Pain Decrease” value with Male Rj: NMRI mice (50 μmol/kg i.p.) was determined as 9%; in the data set with Male Rj: NMRI mice (250 μmol/kg i.p.), 13%; in the data set on Male Rj: NMRI mice (500 μmol/kg i.p.), 66%. Also, the “Anti-inflammatory and analgesic effects in formalin paw test (FIG. 16)” value with Male Rj: NMRI mice was “show anti-inflammatory and analgesic effects”. In addition, the “Licking Score (15 to 50 minutes post-formalin injection) % Change from Control” value with Male Rj: NMRI mice (setting [4]) was −9%; in the data set with Male Rj: NMRI mice (setting [5]), −13%; in the data set on Male Rj: NMRI mice (setting [6]), −66%. Moreover, the “Cumulative duration of hippocampal discharges” value with adult mice (C57/B16) is “decreased”. For the same compound, in the data set on adult mice (C57/B16), the “Number of hippocampal discharges” value was “decreased”.
Regarding `CCCCNc1cc(C(=O)OCC(=O)N(CC)CC)cc(S(N)(=O)=O)c1Oc1ccccc1` [NTP-2006, N,N-Diethylaminocarbonylmethyl 3-Aminosulfonyl-5-butylamino-4-phenoxybenzoate], the “Licking Score % Pain Decrease” value in the data set on Male Rj: NMRI mice (50 μmol/kg i.p.) was 40.0%; in the data set with Male Rj: NMRI mice (250 μmol/kg i.p.) it was 61%; in the data set on Male Rj: NMRI mice (500 μmol/kg i.p.), 60%. The “Anti-inflammatory and analgesic effects in formalin paw test (FIG. 16)” value in the data set on Male Rj: NMRI mice was “show anti-inflammatory and analgesic effects”. Besides, the “Licking Score (15 to 50 minutes post-formalin injection) % Change from Control” value with Male Rj: NMRI mice (setting [4]) was −40%; in the data set on Male Rj: NMRI mice (setting [5]) it was −61%; with Male Rj: NMRI mice (setting [6]) it was −60%. Moreover, the “Cumulative duration of hippocampal discharges” value in the data set on adult mice (C57/B16) is “decreased”. In addition, the “Number of hippocampal discharges” value with adult mice (C57/B16) was “decreased”. For the same compound, on Na+K+Cl− co-transporter (read-out: % Inhibition of Control Values), the inhibition – broadly, how much of the control response was suppressed – at 10 µM turned out to be 50%. The remaining activity at 10 µM on Na+K+Cl− co-transporter (read-out: % of Control Value) was determined as 49.6%. In addition, the “Concentration of NTP-2006 in rat blood” value in data set [1] (NTP-2006 100 mg/kg IP, PBx pretreated, 15 m) was 2.008 ng/mL and 1.728 ng/mL; in data set [1] (NTP-2006 100 mg/kg IP, PBx pretreated, 1 h), “BLQ (Below Limit of Quantitation (<1 ng/ml))”; in data set [1] (NTP-2006 100 mg/kg IP, PBx pretreated, 2 h), “BLQ (Below Limit of Quantitation (<1 ng/ml))”; in data set [1] (NTP-2006 100 mg/kg IP, PBx pretreated, 4 h), “BLQ (Below Limit of Quantitation (<1 ng/ml))”; in data set [1] (NTP-2006 100 mg/kg IP, PBx pretreated, 6 h), “BLQ (Below Limit of Quantitation (<1 ng/ml))”. For the same compound, in data set [1] (i.p., rats), the “Degradation to bumetanide in the blood” value is listed as “degrades into bumetanide”. In addition, the concentration at 15 min in data set [1] (rat, whole blood, intraperitoneal, 100 mg/kg, NTP-2006 100 mg/kg IP, PBx pretreated, 15 m) was determined as 3.32 ng/mL; in data set [2] (rat, brain, intraperitoneal, 100 mg/kg, 15 m), 2.95 ng/mL. For the same compound, the concentration at 30 min in data set [1] (rat, whole blood, intraperitoneal, 100 mg/kg, NTP-2006 100 mg/kg IP, PBx pretreated, 30 m) came out at 3.35 ng/mL. Besides, the “Concentration of NTP-2006 in rat brain” value in data set [2] (15 m) was 5.259 ng/mL and 2.937 ng/mL; in data set [2] (6 h), 1.523 ng/mL and 1.572 ng/mL. Besides, the concentration at 6 h in data set [2] (rat, brain, intraperitoneal, 100 mg/kg, 6 h) was 1.88 ng/mL.
As to `CN1C(=O)CC(=O)N(c2ccccc2)c2cc(Cl)ccc21` [clobazam], the “Effect on inhibitory currents in α1 subunit containing GABAA receptors” value (shortened to “Effect on inhibitory currents”) in data set [3] was “increase both the amplitude and time course of inhibitory currents”.
Take `CN1C(=O)CN=C(c2ccccc2)c2cc(Cl)ccc21` [diazepam]: the “Effect on inhibitory currents” value in data set [3] is “increase both the amplitude and time course of inhibitory currents”.
Take `Cc1ccc(-c2nc3ccc(C)cn3c2CC(=O)N(C)C)cc1` [zolpidem]: the “Effect on inhibitory currents” value in data set [3] was “increase both the amplitude and time course of inhibitory currents”.

The record behind these values is patent publication US9682928B2 (NeuroPro Therapeutics, Inc., priority 2009, dated 2017).
